Source: US8026218B2, “Bifunctional analgesic compounds for opioid receptor agonists and neurokinin-1 receptor antagonists” (The University of Arizona, priority 2006, dated 2011)
Where two headings read alike, the source gives them in different places. Peptide text beside a SMILES is read from it.

Experiments:
[1] = target: T1, rat μ opioid receptors (rMOR) (Rattus norvegicus, UniProt P33535); assay: biochemical; format: biochemical
T1 construct: expressed in transfected cells; host or cells: HN9.10 neuroblastoma cell line, pCDNA3, neomycin-selected clones

[2] = target: T2, rat NK1 (rNK1) receptor (Rattus norvegicus, UniProt P14600); assay: Radioligand competition binding, [3H]substance P, rNK1/CHO membranes; conditions: for IC50: membranes from transfected CHO cells
T2 construct: expressed in transfected cells; host or cells: CHO (rNK-1/CHO cell line from Dr. James Krause)

[3] = target: T3, human δ opioid receptors (hDOR) (Homo sapiens, UniProt P41143); assay: [35S]GTP-γ-S binding assay, hDOR; format: biochemical
T3 construct: expressed in transfected cells; host or cells: HN9.10 neuroblastoma cell line, pCDNA3, neomycin-selected clones

[4] = target: T3, human δ opioid receptors (hDOR); assay: Radioligand competition binding, [3H]DPDPE, hDOR membranes
[5] = target: T1, rat μ opioid receptors (rMOR); assay: Radioligand competition binding, [3H]DAMGO, rMOR membranes; conditions: for LogIC50, rMOR, [3H]DAMGO: membranes from transfected HN9.10 cells
[6] = target: T4, δ opioid receptors (MVD) (Mus musculus, UniProt P32300); assay: Mouse isolated vas deferens (MVD) assay, opioid agonist
T4 construct: from tissue; host or cells: mouse (ICR) isolated vas deferens

[7] = target: T5, human NK1 receptor (hNK1) (Homo sapiens, UniProt P25103); assay: Radioligand competition binding, [3H]-Substance P, hNK1
T5 construct: expressed in transfected cells

[8] = tested on: μ opioid receptors (GPI); assay: Guinea pig isolated ileum (GPI) assay, opioid agonist; set-up: GPI/LMMP Opioid(m) Agonist, % inh.: unit of the concentration uncertain;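 also: inhibition of electrically evoked contractions (0.1 Hz, 0.4 msec, supramaximal voltage) in organ baths at 37 °C, contraction height 3 min after each cumulative dose versus the 1 min before dosing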
[9] = target: T6, Substance P receptors (guinea pig NK1) (Cavia porcellus, UniProt P30547); assay: Guinea pig isolated ileum (GPI) assay with substance P stimulation in presence of 1 μM naloxone; conditions: for activation at 1 µM: read-out: Substance P GPI agonist (A50), contraction relative to initial muscle contraction with KCl
T6 construct: from tissue; host or cells: guinea pig (Hartley) ileum LMMP, 1 μM naloxone present

[10] = Table 27, read-out: GTP binding rMOR EC50
[11] = Table 27, read-out: GTP binding rMOR Emax (%)
[12] = Table 39, read-out: GTP binding rMOR EC50
[13] = Table 39, read-out: GTP binding rMOR Emax
[14] = net total bound/basal binding × 100, read-out: Emax, rMOR, [35S]GTP-γ-S binding
[15] = read-out: EC50, rMOR, [35S]GTP-γ-S binding
[16] = IC50, rNK1, Substance P radioligand
[17] = read-out: EC50, hDOR, [35S]GTP-γ-S binding
[18] = Table 27, read-out: Affinity rMOR (Ki; nM)
[19] = Table 39, read-out: Affinity rMOR (Ki; nM)
[20] = Table 28, read-out: MVD Opioid (d) Agonist (IC50; nM)
[21] = Table 39, read-out: MVD opioid(delta) agonist (IC50; nM)
[22] = electrically stimulated isolated tissue, read-out: MVD (δ), IC50
[23] = Substance P antagonist, GPI, Ke, in the presence of 1 μM naloxone

T4 sequence (P32300 whole entry): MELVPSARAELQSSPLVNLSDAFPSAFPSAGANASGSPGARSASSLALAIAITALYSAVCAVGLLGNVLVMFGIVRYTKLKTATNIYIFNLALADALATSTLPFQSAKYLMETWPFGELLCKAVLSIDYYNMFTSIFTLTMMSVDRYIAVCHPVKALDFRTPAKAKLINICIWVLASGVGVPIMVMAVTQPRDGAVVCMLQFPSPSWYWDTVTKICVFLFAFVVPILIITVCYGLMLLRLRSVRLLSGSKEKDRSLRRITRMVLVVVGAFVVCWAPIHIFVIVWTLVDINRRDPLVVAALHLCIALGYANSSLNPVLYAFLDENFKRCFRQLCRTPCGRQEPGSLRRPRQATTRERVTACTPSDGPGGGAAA
T3 sequence (P41143 whole entry): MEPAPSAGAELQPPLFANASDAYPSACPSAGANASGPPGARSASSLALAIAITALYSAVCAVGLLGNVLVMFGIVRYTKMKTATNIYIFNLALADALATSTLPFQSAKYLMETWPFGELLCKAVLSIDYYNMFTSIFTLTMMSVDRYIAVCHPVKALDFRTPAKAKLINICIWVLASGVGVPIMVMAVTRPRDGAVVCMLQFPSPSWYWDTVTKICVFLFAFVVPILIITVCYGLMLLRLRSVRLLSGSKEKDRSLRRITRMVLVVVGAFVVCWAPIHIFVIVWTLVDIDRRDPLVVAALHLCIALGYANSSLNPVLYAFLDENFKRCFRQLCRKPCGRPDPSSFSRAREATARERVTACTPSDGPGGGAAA
T2 sequence (P14600 whole entry): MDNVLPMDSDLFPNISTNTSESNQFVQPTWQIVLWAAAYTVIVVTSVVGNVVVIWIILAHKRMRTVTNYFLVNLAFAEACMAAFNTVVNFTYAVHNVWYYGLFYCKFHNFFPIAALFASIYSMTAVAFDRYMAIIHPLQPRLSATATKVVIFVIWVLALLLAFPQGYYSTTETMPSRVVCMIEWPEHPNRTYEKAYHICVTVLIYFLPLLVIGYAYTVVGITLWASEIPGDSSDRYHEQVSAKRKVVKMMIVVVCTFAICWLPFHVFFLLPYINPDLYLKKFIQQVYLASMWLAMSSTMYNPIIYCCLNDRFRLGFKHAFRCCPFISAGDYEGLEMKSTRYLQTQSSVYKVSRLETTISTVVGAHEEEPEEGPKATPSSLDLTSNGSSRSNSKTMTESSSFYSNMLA
T6 sequence (P30547 whole entry): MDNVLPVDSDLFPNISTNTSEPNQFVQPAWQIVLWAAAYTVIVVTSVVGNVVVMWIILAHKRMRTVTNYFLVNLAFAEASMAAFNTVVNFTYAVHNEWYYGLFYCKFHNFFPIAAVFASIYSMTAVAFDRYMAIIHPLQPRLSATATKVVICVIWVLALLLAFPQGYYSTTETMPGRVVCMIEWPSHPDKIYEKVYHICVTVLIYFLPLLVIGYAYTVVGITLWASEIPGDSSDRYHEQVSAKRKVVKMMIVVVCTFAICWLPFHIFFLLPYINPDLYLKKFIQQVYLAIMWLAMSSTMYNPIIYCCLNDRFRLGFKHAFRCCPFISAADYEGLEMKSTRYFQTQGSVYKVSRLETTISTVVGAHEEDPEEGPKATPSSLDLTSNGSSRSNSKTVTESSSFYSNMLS
T1 sequence (P33535 whole entry): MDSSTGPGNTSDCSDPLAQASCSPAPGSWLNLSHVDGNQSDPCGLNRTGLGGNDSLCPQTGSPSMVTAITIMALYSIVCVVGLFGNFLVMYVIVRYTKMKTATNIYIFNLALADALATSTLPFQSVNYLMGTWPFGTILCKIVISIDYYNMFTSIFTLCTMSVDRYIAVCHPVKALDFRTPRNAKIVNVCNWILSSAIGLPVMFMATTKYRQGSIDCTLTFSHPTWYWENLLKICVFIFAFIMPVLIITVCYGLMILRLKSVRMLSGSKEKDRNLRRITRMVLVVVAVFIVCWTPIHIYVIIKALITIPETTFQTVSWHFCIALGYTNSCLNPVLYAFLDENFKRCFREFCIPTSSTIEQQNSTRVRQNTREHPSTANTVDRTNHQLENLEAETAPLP
T5 sequence (P25103 whole entry): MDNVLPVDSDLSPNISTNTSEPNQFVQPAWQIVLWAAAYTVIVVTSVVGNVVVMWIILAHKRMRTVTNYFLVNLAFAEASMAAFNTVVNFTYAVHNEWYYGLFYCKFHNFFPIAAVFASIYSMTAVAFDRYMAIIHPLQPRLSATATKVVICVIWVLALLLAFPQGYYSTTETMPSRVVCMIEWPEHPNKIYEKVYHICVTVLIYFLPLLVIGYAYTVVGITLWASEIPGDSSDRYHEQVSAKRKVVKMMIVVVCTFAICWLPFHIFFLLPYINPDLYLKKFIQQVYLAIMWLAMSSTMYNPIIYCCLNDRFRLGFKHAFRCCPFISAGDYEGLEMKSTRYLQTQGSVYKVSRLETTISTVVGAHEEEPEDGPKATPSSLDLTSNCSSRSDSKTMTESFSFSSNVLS

## CC(C)C[C@H](NC(=O)[C@H](Cc1ccccc1)NC(=O)CNC(=O)[C@@H](C)NC(=O)[C@@H](N)Cc1ccc(O)cc1)C(=O)N[C@@H](Cc1c[nH]c2ccccc12)C(=O)OCc1cc(C(F)(F)F)cc(C(F)(F)F)c1 [NP37] (HELM PEPTIDE1{Y.[dA].G.F.L.W.[FC(F)(F)c1cc(CO[*:1])cc(C(F)(F)F)c1]}$$$$V2.0; N-terminus assumed)
[1]; Table 32, read-out: GTP rMOR EC50
  EC50: 14 nM
[1]; Table 32, read-out: GTP rMOR EMax
  Emax: 54%
[2]; Affinity (Ki, nM) rNK1, Table 32
  Ki: 0.29 nM
[3]; Table 32, read-out: GTP hDOR EC50
  EC50: 4.8 nM
[3]; Table 32, read-out: GTP hDOR EMax
  Emax: 60%
[4]
  Ki: 2.9 nM
[5]
  Ki: 23.3 nM
[6]
  IC50: 25.7 nM

## C[C@@H](NC(=O)[C@@H](N)Cc1ccc(O)cc1)C(=O)N[C@@H](Cc1c[nH]c2ccccc12)C(=O)OCc1cc(C(F)(F)F)cc(C(F)(F)F)c1 [NP43]
[1]; Table 33, read-out: GTP EC50 (nM) rMOR
  EC50: 168 nM
[7]
  Ki: 0.004 nM
[2]; Ki (nM) rNK1, Table 33
  Ki: 2.94 nM
[3]; Table 33, read-out: GTP EC50 (nM) hDOR
  EC50: 90.9 nM
[4]; Table 33, read-out: Ki (nM) hDOR
  Ki: 100 nM
[8]; Table 36, at 1 μM
  GPI μ-agonist, % at 1 μM: 3.3% at 1 μM
[5]; Table 33, read-out: Ki (nM) rMOR
  Ki: 178 nM
[6]; Table 36, at 1 μM
  MVD δ-agonist, % at 1 μM: 5.5% at 1 μM
[9]; GPI SP-antagonist Ke (nM), Table 36
  Kb: 49.4 nM

## CC(C)C[C@H](NC(=O)[C@@H]1CCCN1C(=O)[C@H](Cc1ccccc1)NC(=O)[C@H](Cc1ccccc1)NC(=O)CNC(=O)[C@@H](C)NC(=O)[C@@H](N)Cc1ccc(O)cc1)C(=O)N[C@@H](Cc1c[nH]c2ccccc12)C(=O)OCc1cc(C(F)(F)F)cc(C(F)(F)F)c1 [TY003, H-Tyr-D-Ala-Gly-Phe-Phe-Pro-Leu-Trp-O-3,5-Bzl(CF3)2]
[1]
  LogEC50, rMOR, [35S]GTP-γ-S binding: −7.23 ± 0.18
[1]; [10]
  EC50: 58.7 nM
[1]; [11]
  Emax: 36.3%
[1]; [12]
  EC50: 58.7 nM
[1]; [13]
  Emax: 36.3%
[1]; [14]
  Emax: 41%
[1]; [15]
  EC50: 58.7 nM
[2]; [16]
  IC50: 19.3 nM
[2]; LogIC50, rNK1, Substance P radioligand
  IC50: 19.1 nM
[3]
  Ki(μ)/Ki(δ): 2.8
  LogEC50, hDOR, [35S]GTP-γ-S binding: −7.68 ± 0.20
[3]; [17]
  EC50: 20.8 nM
[3]; read-out: Emax, hDOR, [35S]GTP-γ-S binding
  Emax: 39%
[3]; read-out: GTP binding hDOR EC50
  EC50: 20.8 nM
[3]; read-out: GTP binding hDOR Emax
  Emax: 39%
[3]; read-out: GTP binding hDOR Emax (%)
  Emax: 39%
[4]
  Ki: 14.6 nM
[4]; binding, rMOR vs hDOR
  Ki(μ)/Ki(δ): 1.9
[4]; membranes from transfected HN9.10 cells
  LogIC50, hDOR, [3H]DPDPE: −7.50 ± 0.14
[8]; Table 28, at 1 (unit uncertain)
  GPI/LMMP Opioid(m) Agonist, % inh.: 7% inh. at 1 mM
[8]; Table 39
  GPI/LMMP opioid(mu) Antagonist: none
[8]; Table 39, at 1 uM
  GPI/LMMP opioid(mu) agonist, % at 1 uM: 6.6% @ 1 uM
[8]; at 1 μM
  GPI (μ), effect at single concentration: 7% at 1 μM^b
[5]; [18]
  Ki: 28.3 nM
[5]; [19]
  Ki: 28.3 nM
[5]
  LogIC50, rMOR, [3H]DAMGO: −7.22 ± 0.10
[5]; read-out: Ki, rMOR, [3H]DAMGO
  Ki: 28.3 nM
[6]; [20]
  IC50: 905 nM
[6]; [21]
  IC50: 905 nM
[6]; [22]
  IC50: 905 ± 186 nM
[9]; [23]
  Kb: 14.4 ± 4.9 nM
[9]; Table 39, concentration not given
  GPI/LMMP SP Agonist (IC50; nM): none
[9]
  activation at 1 µM: 0%

## CC(C)C[C@H](NC(=O)[C@@H]1CCCN1C(=O)CNC(=O)[C@H](Cc1ccccc1)NC(=O)CNC(=O)[C@@H](C)NC(=O)[C@@H](N)Cc1ccc(O)cc1)C(=O)N[C@@H](Cc1c[nH]c2ccccc12)C(=O)OCc1cc(C(F)(F)F)cc(C(F)(F)F)c1 [TY006, H-Tyr-D-Ala-Gly-Phe-Gly-Pro-Leu-Trp-O-3,5-Bzl(CF3)2] (HELM PEPTIDE1{Y.[dA].G.F.G.P.L.W.[FC(F)(F)c1cc(CO[*:1])cc(C(F)(F)F)c1]}$$$$V2.0)
[1]
  LogEC50, rMOR, [35S]GTP-γ-S binding: −7.38 ± 0.20
[1]; [10]
  EC50: 41.7 nM
[1]; [11]
  Emax: 35.9%
[1]; [12]
  EC50: 41.7 nM
[1]; [13]
  Emax: 35.9%
[1]; [14]
  Emax: 39%
[1]; [15]
  EC50: 41.7 nM
[7]
  Ki: 0.016 nM
[2]; [16]
  IC50: 15.6 nM
[3]
  LogEC50, hDOR, [35S]GTP-γ-S binding: −7.30 ± 0.24
[3]; Table 27, read-out: GTP binding hDOR EC50
  EC50: 50.2 nM
[3]; Table 27, read-out: GTP binding hDOR Emax (%)
  Emax: 33.6%
[3]; Table 39, read-out: GTP binding hDOR EC50
  EC50: 50.2 nM
[3]; Table 39, read-out: GTP binding hDOR Emax
  Emax: 33.6%
[3]; net total bound/basal binding × 100, read-out: Emax, hDOR, [35S]GTP-γ-S binding
  Emax: 35%
[3]; [17]
  EC50: 50.2 nM
[4]; Table 27, read-out: Affinity hDOR (Ki; nM)
  Ki: 36.1 nM
[4]; Table 39, read-out: Affinity hDOR (Ki; nM)
  Ki: 36.1 nM
[4]; read-out: Ki, hDOR, [3H]DPDPE
  Ki: 36.1 nM
[8]; Table 28, read-out: GPI/LMMP Opioid(m) Agonist (IC50; nM)
  IC50: 384 nM
[8]; Table 39, read-out: GPI/LMMP opioid(mu) agonist (IC50; nM)
  IC50: 384 nM
[8]; electrically stimulated isolated tissue, read-out: GPI (μ), IC50
  IC50: 384 nM
[5]; [18]
  Ki: 27 nM
[5]; [19]
  Ki: 27 nM
[5]
  LogIC50, rMOR, [3H]DAMGO: −7.24 ± 0.15
[5]; read-out: Ki, rMOR, [3H]DAMGO
  Ki: 27 nM
[6]
  IC50: 172 ± 26 nM
[6]; [20]
  IC50: 172 nM
[6]; [21]
  IC50: 172 nM
[6]; [22]
  IC50: 171 nM
[9]
  IC50: 5.4 nM
  activation at 1 µM: 0%
[9]; [23]
  Kb: 5.4 ± 1.4 nM
